Assay results reported in patent publication US20260232666A1, “COMPOSITIONS AND METHODS FOR INHIBITION OF RAS” (TheRas, Inc., priority 2023, published 2026).

Key:
[1] = target: T1, GDP-loaded KRAS4b (amino acids 1-169) G12C/C118S protein (Homo sapiens, UniProt P01116, C118S/G12C); assay: Covalent cysteine 12 modification by MALDI-TOF MS, GDP-loaded KRAS G12C; format: binding; details: 15 minutes reaction time point
T1 construct: KRAS4b (amino acids 1-169) G12C/C118S protein; made in house
Protocol: (§1) Biological Example 1: Covalent Cysteine 12 Modification Analysis Using Matrix Assisted Laser Desorption Ionization-Time of Flight Mass Spectrometry (MALDI-TOF MS)
(§2) MALDI-TOF MS analysis was performed using 1 μM protein (KRAS G12C), and 1:2.5 protein to compound ratio.
(§3) Reaction: 1 μM of GppNHp, GTP, or GDP-loaded KRAS4b (amino acids 1-169) G12C/C118S protein (produced in-house by Protein Expression Laboratory, FNLCR/Leidos Biomed) in 20 mM 4-(2-hydroxyethyl)-1-piperazineethanesulfonic acid (HEPES) buffer containing 150 mM NaCl, 1 mM MgCl2, pH 7.3 was prepared freshly before assay. Twelve-μL aliquots of protein were dispensed onto low volume 384-well plate, then 30 nL of tested compounds from 1 mM DMSO stocks were added to appropriate wells using ECHO 555 acoustic liquid handler (Labcyte Inc.). For each reaction/assay, three blanks were prepared by mixing 12 μL of protein solution with 30 nL DMSO. The contents of the wells were carefully mixed by aspiration, and then each plate was sealed with an adhesive cover, centrifuged at 2000 g for 1 minute, and kept in the dark at room temperature until 5 min, 15 min, 30 min, 2 h, or 6 h collections.
(§4) Target pretreatment: Before each assay MALDI target (Bruker MPT 384 ground steel BC) was pre-treated by pipetting on each spot 0.75 μL of saturated sinapinic acid in acetonitrile (ACN).
(§5) Sample preparation: At collection time point, 2 μL of reaction mixtures were pipetted out into 15 μL MALDI matrix solution (saturated solution of sinapinic acid in 1:1 ACN:water solution containing 0.75% trifluoroacetic acid (TFA)) deposited on 384 well polypropylene plate. Resulting solution was mixed by aspiration, centrifuged at 2000 g for 1 minute, then 1.5 μL aliquots were dispensed on pre-treated MALDI target using Beckman Coulter Biomek FXP 96/384-Span-8 Laboratory Automation Workstation. Finally, the MALDI target was dried under mild vacuum to produce spots with fine crystalline structure.
(§6) Measurements: MALDI-TOF measurements were performed on a Bruker Daltonics rapiflex Tissuetyper TOF-TOF mass spectrometer using linear mode and mass range from 18.6 to 21.6 kDa. Detector gain was set to 3.3×(483 V), sample rate to 5 GS/s, real time smoothing to medium (175 MHz), laser smart beam pattern was set to: “MS Thin Layer M5”, and the laser frequency was 10000 Hz. Spectra were automatically collected using custom AutoXecute method. Laser power was auto adjusted using fuzzy control. The peak selection range was set to be between 19000 and 21500 Da. Peak evaluation uses half width parameter set to be smaller than 40 Da for processed spectrograms (centroid peak detection; smoothed by SavitzkyGolay algorithm using 7 m/z width and 2 cycles; baseline was subtracted using median algorithm with flatness 1 and median level 0.01). Fuzzy control used Proteins/Oligonucleotides protocol with minimum half width 1/10 times above threshold. Up to 40000 satisfactory shots were collected in 10000 shot steps. Dynamic termination was implemented to finish data collection when peak signal/noise ratio was reaching value of 50.
(§7) Spectra processing: Spectra were smoothed by SavitzkyGolay algorithm using 7 m/z width and three cycles. Centroid peak detection algorithm was used with signal to noise threshold set to 6, relative intensity threshold 4%, peak width 10 m/z and median baseline subtraction using flatness of 1 and median level of 0.01. Peak intensity and area under the peak were evaluated and recorded for all peaks between 19,300 Da and 21,550 Da.
(§8) Calculation of percent modification: Percent modification was calculated as a ratio of peak height for protein modified by compound to sum of peak height of remaining protein plus peak height for protein modified by compound. If multiple modifications were observed each was calculated as a ratio of peak height for given modification versus sum of peak heights for all observed protein species. Data reported in Table 4 are from 15 minutes reaction time point. […]

pERK in NCI-H358 cells = assay: Cell-based pERK HTRF assay (pERK inhibition in H358 cells); details: 30 min incubation
Protocol: Biological Example 3: Cell-Based pERK HTRF Assay
pERK assays (Perkin Elmer) were used to determine the effectiveness of compounds of the present disclosure in disrupting KRAS G12C protein/effector signaling in cells.
On Day 1, cells (NCI-H358) were seeded into 96-well plates at 4×10^4 cells/well in complete growth media (RPMI, 10% FBS).
On Day 2, cells were treated with compounds at 0.25% DMSO. The source plate was created with compounds diluted in media at 5-fold the final assay concentration. The compounds were run in a 9-point concentration curve starting at 75 μM, with a 3-fold dilution between concentrations. 20 μL was transferred onto the cell plates (final volume in wells was 100 μL). Plates were harvested after 30 min incubation by aspirating media and adding kit-supplied 1× supplemented lysis buffer to all wells (75 μl per well). Plates were then placed on a plate shaker and incubated at 850 rpm for an additional 30 min.
Antibody mixture solution was prepared by diluting aliquoted d2 and Eu Cryptate antibodies 1:20 in kit supplied detection buffer, then mixed the diluted antibodies solutions (1:1 v:v). 4 μL of this solution was then added to a 384-well detection plate (Perkin Elmer; 6008230).
Samples were homogenized by pipetting up and down and then transferred (16 μL of cell lysates) from the 96-well cell culture plate to two wells of the HTRF 384-well detection plate containing the antibody solution. Plates were centrifuged (524 g for […]) and allowed to incubate between 4 and 24 h at room temperature. Maximum signal is reached after 4 h incubation time and remains stable over a period of 24 hours. Therefore, readings can be made between 4 and 24 h of incubation. Plates were centrifuged again (524 g for 1 min), and analyzed on the En Vision plate reader using the following settings: Excitation 320 nm, Bandwidth 75 nm; Emission 615 nm, Bandwidth 85 nm; Gain 100%; Flashes 100; Lag 60 μs.
The percent of modification of GppNHp, GTP, or GDP loaded KRAS G12C by MALDI-TOF MS, biochemical Raf1 RBD-KRAS G12C-GppNHp disruption assay IC50, and pERK inhibition IC50 of selected compounds described herein are shown in Table 4. For percent of modification at 15 minutes (MALDI-TOF MS) of GppNHp, GTP, or GDP loaded KRAS G12C: A: percent of modification ≥70%; B: 50≤percent of modification <70%; C: 10%≤percent of modification <50%; D: percent of modification <10%. […] For pERK inhibition in H358 cell assay: A: IC50≤0.1 μM; B: 0.1 μM<IC50≤1 μM; C: IC50>1 μM. Blanks in the table represent that compound was not tested in the indicated assay.

[2] = target: T2, GppNHp-loaded KRAS4b (amino acids 1-169) G12C/C118S protein (Homo sapiens, UniProt P01116, C118S/G12C); assay: Covalent cysteine 12 modification by MALDI-TOF MS, GppNHp-loaded KRAS G12C; format: binding; details: 15 minutes reaction time point
T2 construct: KRAS4b (amino acids 1-169) G12C/C118S protein; made in house
Protocol: as §1, §2, §3, §4, §5, §6, §7, §8

[3] = target: T3, GTP-loaded KRAS4b (amino acids 1-169) G12C/C118S protein (Homo sapiens, UniProt P01116, C118S/G12C); assay: Covalent cysteine 12 modification by MALDI-TOF MS, GTP-loaded KRAS G12C; format: binding; details: 15 minutes reaction time point
T3 construct: KRAS4b (amino acids 1-169) G12C/C118S protein; made in house
Protocol: as §1, §2, §3, §4, §5, §6, §7, §8

| Structure (SMILES) | GDP-KRAS G12C percent of modification [1] | IC50 (pERK in NCI-H358 cells) | GppNHp-KRAS G12C percent of modification [2] | GTP-KRAS G12C percent of modification [3] | IC50 (pERK in NCI-H358 cells; Homo sapiens, NCI-H358, 0.5 h) |
| --- | --- | --- | --- | --- | --- |
| C[C@@H]1[C@H](N(C)c2nc(OC[C@@]34CCCN3C[C@H](F)C4)nc3c(F)c(-c4ccc(F)c5sc(N)c(C#N)c45)c(C(F)(F)F)cc23)CCN1C(=O)[C@H](F)Cl (atropisomer, axis not shown; (aS)) [Compound 183, 2-amino-4-((S)-4-(((2R,3R)-1-((R)-2-chloro-2-fluoroacetyl)-2-methylpyrrolidin-3-yl)(methyl)amino)-8-fluoro-2-(((2R,7aS)-2-fluorotetrahydro-1H-pyrrolizin-7a(5H)-yl)methoxy)-6-(trifluoromethyl)quinazolin-7-yl)-7-fluorobenzo[b]thiophene-3-carbonitrile] | A (percent of modification ≥70%) | < 100 nM | A (percent of modification ≥70%) | A (percent of modification ≥70%) |  |
| CCN(c1nc(OC[C@@H]2C[C@@H](OC)CN2C)nc2c(F)c(-c3ccc(F)c4sc(N)c(C#N)c34)c(C(F)(F)F)cc12)[C@@H]1CCN(C(=O)[C@@H](F)Cl)[C@@H]1C [Compound 178] | D (percent of modification <10%) |  | D (percent of modification <10%) | D (percent of modification <10%) | 100 to 1000 nM |
| CCN(c1nc(OC[C@@H]2C[C@@H](OC)CN2C)nc2c(F)c(-c3ccc(F)c4sc(N)c(C#N)c34)c(C(F)(F)F)cc12)[C@@H]1CCN(C(=O)[C@H](F)Cl)[C@@H]1C [Compound 179] | C (10%≤percent of modification <50%) |  | B (50≤percent of modification <70%) | C (10%≤percent of modification <50%) | < 100 nM |
| C[C@@H]1CN(c2nc(OC[C@@]34CCCN3C[C@H](F)C4)nc3c(F)c(-c4ccc(F)c5sc(N)c(C#N)c45)c(C(F)(F)F)cc23)[C@@H](C)CN1C(=O)[C@@H](F)Cl [Compound 180] | C (10%≤percent of modification <50%) |  | D (percent of modification <10%) | D (percent of modification <10%) | < 100 nM |
| C[C@@H]1CN(c2nc(OC[C@@]34CCCN3C[C@H](F)C4)nc3c(F)c(-c4ccc(F)c5sc(N)c(C#N)c45)c(C(F)(F)F)cc23)[C@@H](C)CN1C(=O)[C@H](F)Cl [Compound 181] | D (percent of modification <10%) |  | D (percent of modification <10%) | D (percent of modification <10%) | 100 to 1000 nM |
| CCN(c1nc(OC[C@@]23CCCN2C[C@H](F)C3)nc2c(F)c(-c3ccc(F)c4sc(N)c(C#N)c34)c(C(F)(F)F)cc12)[C@H]1CCN(C(=O)[C@@H](F)Cl)C1 [Compound 186] | C (10%≤percent of modification <50%) |  | C (10%≤percent of modification <50%) | B (50≤percent of modification <70%) | < 100 nM |

Second part, the molecule after the results:

| GDP-KRAS G12C percent of modification [1] | IC50 (pERK in NCI-H358 cells) | GppNHp-KRAS G12C percent of modification [2] | GTP-KRAS G12C percent of modification [3] | IC50 (pERK in NCI-H358 cells; Homo sapiens, NCI-H358, 0.5 h) | Structure (SMILES) |
| --- | --- | --- | --- | --- | --- |
| B (50≤percent of modification <70%) |  | B (50≤percent of modification <70%) | B (50≤percent of modification <70%) | < 100 nM | CCN(c1nc(OC[C@@]23CCCN2C[C@H](F)C3)nc2c(F)c(-c3ccc(F)c4sc(N)c(C#N)c34)c(C(F)(F)F)cc12)[C@H]1CCN(C(=O)[C@H](F)Cl)C1 [Compound 187] |
| B (50≤percent of modification <70%) |  | B (50≤percent of modification <70%) | C (10%≤percent of modification <50%) | < 100 nM | C[C@@H]1[C@H](N(C)c2nc(OC[C@@]34CCCN3C[C@H](F)C4)nc3c(F)c(-c4ccc(F)c5sc(N)c(C#N)c45)c(C(F)(F)F)cc23)CCN1C(=O)/C=C/c1nc(C(C)(F)F)no1 [Compound 188, 2-amino-4-(4-(((2R,3R)-1-((E)-3-(3-(1,1-difluoroethyl)-1,2,4-oxadiazol-5-yl)acryloyl)-2-methylpyrrolidin-3-yl)(methyl)amino)-8-fluoro-2-(((2R,7aS)-2-fluorotetrahydro-1H-pyrrolizin-7a(5H)-yl)methoxy)-6-(trifluoromethyl)quinazolin-7-yl)-7-fluorobenzo[b]thiophene-3-carbonitrile] |
| B (50≤percent of modification <70%) |  | B (50≤percent of modification <70%) | C (10%≤percent of modification <50%) | < 100 nM | CO[C@@H]1C[C@@H](COc2nc(N(C)[C@@H]3CCN(C(=O)/C=C/c4nc(C(C)(F)F)no4)[C@@H]3C)c3cc(C(F)(F)F)c(-c4ccc(F)c5sc(N)c(C#N)c45)c(F)c3n2)N(C)C1 [Compound 189] |
| B (50≤percent of modification <70%) |  | B (50≤percent of modification <70%) | B (50≤percent of modification <70%) | < 100 nM | COC1CC(COc2nc(N(C)C3CCN(C(=O)/C=C/c4nc(C(C)(F)F)no4)C3C)c3cc(Cl)c(-c4ccc(F)c5sc(N)c(C#N)c45)c(F)c3n2)N(C)C1 (stereo not shown) [Compound 190] |
